pIC50: −log10 of the molar value.
Legend:
[1] = biological target: T1, HCV C159S/K136A double mutant (Hepatitis C virus genotype 1b, UniProt P26663, C1185S/K1162A); experiment: MALDI MS of intact HCV protease C159S/K136A double mutant; type: binding; conditions: 1 hr, 10× fold excess
T1 construct: The single-chain proteolytic domain (NS4A21-32-GSGS-NS33-631) was cloned into pET-14b; His tag (own knowledge of vector pET-14b); made in house; host or cells: Escherichia coli BL21
Experimental: (§1) Intact HCV (protease) 1bWT, C159S, and C159S/K136A were incubated for 1 hr at a 10× fold excess of XVI-26 to protein. 3 μl aliquots of the samples were diluted with 10 μl of 0.1% TFA prior to micro C4 ZipTipping directly onto the MALDI target using Sinapinic acid as the desorption matrix (10 mg/mL in 0.1% TFA:Acetonitrile 50:50).

[2] = biological target: T2, HCV protease C159S mutant (Hepatitis C virus genotype 1b, UniProt P26663, C1185S); experiment: MALDI MS of intact HCV protease C159S incubated with compound; type: binding; conditions: 1 hr, 10× fold excess
T2 construct: The single-chain proteolytic domain (NS4A21-32-GSGS-NS33-631) was cloned into pET-14b; His tag (own knowledge of vector pET-14b); made in house; host or cells: Escherichia coli BL21
Experimental: as §1

[3] = biological target: T3, HCV NS3/4A 1b protease enzyme (wild type) (Hepatitis C virus genotype 1b, UniProt P26663); experiment: HCV protease FRET assay (IC50_APP), wild type NS3/4A 1b; type: biochemical
T3 construct: 10× stocks of NS3/4A protease enzyme from Bioenza (Mountain View, Calif.); purchased Bioenza
How it was run: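 Wild-type NS3/4A 1b protease with serially diluted compounds (from 50% DMSO stocks); reaction started at once with FRET substrate and followed 60-90 min at ex485/em520. Initial velocities (0 to 15+ min) normalised to no-inhibitor and no-enzyme controls; apparent IC50 from variable-slope log[inhibitor]-response fit.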

[4] = tested on: NS3/4A self-cleavage activity in Huh-7 cells; experiment: Prolonged duration of action (washout), NS3 self-cleavage in transfected Huh-7 cells; type: cell-based; conditions: FIG. 11
Experimental: Parental Huh-7 cells were plated at a density of 1.75×10^6 cells per 100 mm dish in media with 10% FBS. The following day, cells were transfected in OptiMEM using 28 ug of plasmid and 112 ul of Lipfectamine 2000 (Invitrogen), according to manufacturer's instructions. After 4 hours incubation with the transfection complex, the media was changed to Replicon Assay Medium (RPMI supplemented with 5% FBS, 1× non-essential amino acids and pen/strep). The next morning, the cells were trypsinized, counted and replated in Replicon Media at a density of 20,000 cells/well of a 12 well plate (4 wells per genotype). Cells were allowed to adhere to the plate, then the media was removed and replaced with 1 ml media containing XVI-26, (3 wells per compound) and 0.02% DMSO and returned to the incubator overnight. Sixteen hours later 1 treated well from each genotype (0 hr sample) and 1 untreated well were washed with PBS, then lysed and scraped into 30 ul of Cell Extraction Buffer (Biosource, Camarillo, Calif.) plus Complete Protease Inhibitor (Roche, Indianapolis, Ind.). The remaining wells were rinsed 2× with PBS then fed with Replicon Media and returned to the incubator. […] Lysates were resolved using standard immunoblotting methods and NS3 self-cleavage activity was assessed and quantified relative to untreated samples.

HCV NS3 protease WT 1b = biological target: T4, HCV NS3 protease WT 1b (Hepatitis C virus genotype 1b, UniProt P26663); experiment: MALDI MS of intact HCV protease 1b WT incubated with compound; type: binding
T4 construct: The single-chain proteolytic domain (NS4A21-32-GSGS-NS33-631) was cloned into pET-14b; His tag (own knowledge of vector pET-14b); made in house; host or cells: Escherichia coli BL21
Experimental: as §1, with “1bWT was” for “1bWT, C159S, and C159S/K136A were”, “ul” for “μl”, “50:50). […] Due to likely protein misfolding during protein purification, a small portion of the misfolded protein was not modified.” for “50:50).”
In order to determine whether the modification of the protein occurred at lysine, the pH from the above experiment was increased from 7.4 to 10.0. Because the compound lysine adduct would be an amide any increase in pH would have minimal effect on the modified protein. If however, the modification occurred at cysteine the resultant thioester bond would be unstable and the compound would hydrolyze off the protein.
as §1
as §1, with “WT1b was” for “1bWT, C159S, and C159S/K136A were”, “XVI-1 (mw=782.87)” for “XVI-26”, “50:50). […] Due to some protein misfolding during the purification of the protein, the unfolded portion of the protein can not react with XVI-1.” for “50:50).”

PI3Kβ = PI3Kβ (Homo sapiens, UniProt P42338); experiment: MALDI MS of intact PI3Kβ incubated with compound; type: binding; conditions: 3 hr, 10× fold excess of compound to protein
Sequence of PI3Kβ (P42338 whole entry): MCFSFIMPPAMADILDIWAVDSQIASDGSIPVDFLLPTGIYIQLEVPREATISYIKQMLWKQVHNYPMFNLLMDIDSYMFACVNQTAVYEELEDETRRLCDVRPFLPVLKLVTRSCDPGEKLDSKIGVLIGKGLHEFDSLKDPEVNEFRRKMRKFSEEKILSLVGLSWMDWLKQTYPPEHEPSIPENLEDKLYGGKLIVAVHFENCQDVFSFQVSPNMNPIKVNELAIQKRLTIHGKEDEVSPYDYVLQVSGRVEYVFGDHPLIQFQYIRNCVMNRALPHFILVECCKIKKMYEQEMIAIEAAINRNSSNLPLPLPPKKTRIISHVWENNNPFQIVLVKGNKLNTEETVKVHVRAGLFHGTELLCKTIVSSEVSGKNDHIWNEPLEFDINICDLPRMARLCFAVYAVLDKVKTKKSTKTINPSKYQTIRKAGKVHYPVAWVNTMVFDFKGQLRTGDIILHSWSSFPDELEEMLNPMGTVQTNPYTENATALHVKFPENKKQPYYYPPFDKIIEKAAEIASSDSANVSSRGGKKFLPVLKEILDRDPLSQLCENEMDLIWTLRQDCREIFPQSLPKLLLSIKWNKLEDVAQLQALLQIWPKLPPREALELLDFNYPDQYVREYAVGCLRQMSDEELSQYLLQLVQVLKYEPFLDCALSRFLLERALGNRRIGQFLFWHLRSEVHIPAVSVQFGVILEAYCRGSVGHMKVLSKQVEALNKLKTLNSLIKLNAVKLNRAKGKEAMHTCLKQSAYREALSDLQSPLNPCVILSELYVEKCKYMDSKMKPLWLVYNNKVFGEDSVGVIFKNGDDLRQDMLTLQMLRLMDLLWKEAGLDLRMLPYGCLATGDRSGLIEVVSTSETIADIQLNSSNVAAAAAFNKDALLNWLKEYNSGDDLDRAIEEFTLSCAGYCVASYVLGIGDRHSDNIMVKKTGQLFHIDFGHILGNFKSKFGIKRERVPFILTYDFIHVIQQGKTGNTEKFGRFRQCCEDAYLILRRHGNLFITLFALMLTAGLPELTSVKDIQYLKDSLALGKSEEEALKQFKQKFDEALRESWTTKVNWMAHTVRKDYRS
Sequence of PI3Kβ (P27986 whole entry partner): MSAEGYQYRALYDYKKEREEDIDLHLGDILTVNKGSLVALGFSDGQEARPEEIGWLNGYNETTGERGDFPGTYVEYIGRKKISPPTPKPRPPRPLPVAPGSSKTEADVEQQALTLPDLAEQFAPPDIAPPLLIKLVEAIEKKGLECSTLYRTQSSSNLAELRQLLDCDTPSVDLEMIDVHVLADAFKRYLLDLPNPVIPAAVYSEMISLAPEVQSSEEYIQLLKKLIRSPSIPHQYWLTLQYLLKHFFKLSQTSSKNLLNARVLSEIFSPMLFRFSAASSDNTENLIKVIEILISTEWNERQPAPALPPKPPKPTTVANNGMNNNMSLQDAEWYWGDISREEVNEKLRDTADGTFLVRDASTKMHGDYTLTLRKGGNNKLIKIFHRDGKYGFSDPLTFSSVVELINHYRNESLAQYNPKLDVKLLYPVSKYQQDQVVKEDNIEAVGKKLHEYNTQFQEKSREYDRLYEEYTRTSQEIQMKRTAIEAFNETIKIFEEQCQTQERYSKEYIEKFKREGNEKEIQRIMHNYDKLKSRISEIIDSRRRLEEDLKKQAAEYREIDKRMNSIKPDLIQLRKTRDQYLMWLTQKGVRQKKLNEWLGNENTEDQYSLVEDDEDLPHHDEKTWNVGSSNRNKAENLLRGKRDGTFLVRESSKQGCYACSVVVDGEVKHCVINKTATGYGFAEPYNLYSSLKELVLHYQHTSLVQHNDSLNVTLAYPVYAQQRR
Experimental: Intact PI3Kβ was incubated for 3 hr at a 10× fold access of compound to protein. 5 μL aliquots of the samples were diluted with 15 μL of 0.1% TFA prior to micro C4 ZipTipping directly onto the MALDI target using Sinapinic acid as the desorption matrix (10 mg/mL in 0.1% TFA:Acetonitrile 50:50). Spots were then analyzed via MALDI-MS. XXII-10 modified PI3Kβ 100% by 3h. XXII-8, XXII-6, XXIII-4, and XXIII-3 each provided between about 35% to about 55% modification.

HCT116 = experiment: HCT116-WB assay; type: cell-based; conditions: Homo sapiens, HCT-116; read-out: HCT116-WB Inhibition Designation

modification of PI3Kβ (PI3Kβ) [%] | pIC50 (HCT116) | Compound | modification of HCV C159S/K136A [1] | positive mass shift of HCV C159S [2] [Da] | pIC50 [3] | duration of action after washout [4] | stability of adduct at raised pH (HCV NS3 protease WT 1b; 1 hour at pH 7.4 followed by 2 hours at pH 10) | MS_HCVNS3_INTACT_NS3 WT 1b 1 HR (HCV NS3 protease WT 1b; WT 1b, 1 HR)
 |  | C=C[C@@H]1C[C@]1(NC(=O)[C@@H]1CC(Oc2cc(-c3ccccc3)nc3cc(OC)ccc23)CN1C(=O)[C@H](CCC(=O)N1CCC1=O)NC(=O)OC(C)(C)C)C(=O)NS(=O)(=O)C1CC1 (some centres unmarked) [XVI-26] | no modification | 770 | > 9.00 | prolonged duration of action | did not come off of the protein | H (>50% and ≤70% modification)
100 | 6.00 to 7.00 | C=CS(=O)(=O)N(C)Cc1cc2nc(-c3cccc(O)c3)nc(N3CCOCC3)c2s1 [XXII-10] |  |  |  |  |  | 
